Test results from patent publication US20100197581A1, “NATIVE GP41 ASSAY” (priority 2007, published 2010).
Read-outs that look alike come from different tables or passages of the source.

Assays:
[1] = biological target: T1, gp41 (HR1 region) in native HIV-1 envelope spikes on HUTIIIB cells (Human immunodeficiency virus type 1 group M subtype B, UniProt P04578, V708A); format: binding, HIV-1 IIIB
[2] = biological target: T1, gp41 (HR1 region) in native HIV-1 envelope spikes on HUTIIIB cells; conditions: for activity in native gp41 assay (words, Table 4 results): reference compounds, flow cytometric- and HCS-based assay
Protocol: A serial dilution of test compounds, dissolved in DMSO, were diluted in culture medium (RPMI1640 with Ultraglutamin and Hepes w/o phenol red with 10% bovine calf serum (HyClone) and 20 μg/l gentamycin) with a final DMSO concentration of 1% and added to 384 well Cell Carrier plates (Evotec Technologies). Hut-IIIB cells (15000 cells/well) were added to these test plates and incubated for 30 min at room temperature. […] Finally, a solution of DRAQ 5 in PBS (final concentration of 5 μM) was added to the wells. After incubating the plates for 30′ at room temperature, the test plates were measured using the Opera™ confocal microscope high content screening platform (Evotec Technologies). After every addition, mixing of the well content was achieved by placing the 384w plates on a 384w shaker (MixMate, Eppendorf) for 5 seconds at 2000 rpm.
Image acquisition was performed using a 40× water immersion objective and simultaneous excitation of FITC and Draq5 fluorescence with a 488 and a 635 laser. […] Output parameters of the script included among others “mean (number of spots per cell)” and “mean (integrated spot signal)”. […] Furthermore, potential false positive results due to fluorescence or false negative results due to quenching can be assessed by comparing the inhibition curves generated by the two above mentioned output parameters.

[3] = optimized protocol, […] C34-FITC, 75000 cells/well, compound added before sCD4, 3 independent experiments, read-out: EC50 flow cytometry
[4] = small molecules, specificity experiments, flow cytometry, read-out: Native gp41 EC50

Row | SMILES | EC50 [1, 3] [µM] | EC50 [1, 4] [µM] | activity in native gp41 assay (words, Table 4 results) [2] | other results
1 | O=C1Nc2ccc(Cl)cc2[C@@](C#CC2CC2)(C(F)(F)F)O1 [EFV] | > 200 | > 200 | no activity | cytotoxicity in HCS native gp41 assay ([2]; Hut-IIIB cells, 200 μM): cytotoxicity
2 | Cc1cn([C@H]2C[C@H](N=[N+]=[N-])[C@@H](CO)O2)c(=O)[nH]c1=O [AZT] |  | > 200 |  | 
3 | COc1ccnc2[nH]cc(C(=O)C(=O)N3CCN(C(=O)c4ccccc4)C[C@H]3C)c12 [BMS-806] | 0.013 | > 200 | active | difference between addition of compound before, after or together with sCD4 induction ([1]; three orders of addition, FIG. 1): large increase of sensitivity when the compound was added before or together with sCD4; EC50 ([2]; read-out: EC50 HCS, mean number of spots per cell, 0.5 nM C34-FITC, compound added before sCD4, 3 independent experiments): 0.0043 µM
4 | O=C(O)C1=CC(=C(c2ccc(O)c(C(=O)O)c2)c2ccc(O)c(C(=O)O)c2)C=CC1=O [ATA] |  | > 200 |  | inhibition of C34-FITC binding ([1]; small molecules, specificity experiments): about 40%
5 | CC(C)(C)NC(=O)[C@@H]1C[C@@H]2CCCC[C@@H]2CN1C[C@@H](O)[C@H](Cc1ccccc1)NC(=O)[C@H](CC(N)=O)NC(=O)c1ccc2ccccc2n1 [SQV] |  | > 200 |  | 
6 | O=C(NCc1ccc(F)cc1)c1nc(N2CCCCS2(=O)=O)c2cccnc2c1O [L870,810] |  | > 200 |  | 
